Experimental findings from ChEMBL document CHEMBL1139023, “The reversed binding of beta-phenethylamine inhibitors of DPP-IV: X-ray structures and properties of novel fragment and elaborated inhibitors” (Bioorg Med Chem Lett, 2006) are described below.

In assay [1] the target is Dipeptidyl peptidase 4 (Sus scrofa, UniProt P22411). Description: (§1) Inhibition of DPP4 by continuous fluorimetric assay.
In assay [2] the target is Dipeptidyl peptidase 4 (Homo sapiens, UniProt P27487). Described as §1.
For assay [3], the target named is Dipeptidyl peptidase 4 (Sus scrofa) (UniProt P22411). Description: Inhibition of DPP4 by continuous fluorimetric assay at 100 nM.
Sequence of Dipeptidyl peptidase 4 (Sus scrofa) (P22411 whole entry, looked up): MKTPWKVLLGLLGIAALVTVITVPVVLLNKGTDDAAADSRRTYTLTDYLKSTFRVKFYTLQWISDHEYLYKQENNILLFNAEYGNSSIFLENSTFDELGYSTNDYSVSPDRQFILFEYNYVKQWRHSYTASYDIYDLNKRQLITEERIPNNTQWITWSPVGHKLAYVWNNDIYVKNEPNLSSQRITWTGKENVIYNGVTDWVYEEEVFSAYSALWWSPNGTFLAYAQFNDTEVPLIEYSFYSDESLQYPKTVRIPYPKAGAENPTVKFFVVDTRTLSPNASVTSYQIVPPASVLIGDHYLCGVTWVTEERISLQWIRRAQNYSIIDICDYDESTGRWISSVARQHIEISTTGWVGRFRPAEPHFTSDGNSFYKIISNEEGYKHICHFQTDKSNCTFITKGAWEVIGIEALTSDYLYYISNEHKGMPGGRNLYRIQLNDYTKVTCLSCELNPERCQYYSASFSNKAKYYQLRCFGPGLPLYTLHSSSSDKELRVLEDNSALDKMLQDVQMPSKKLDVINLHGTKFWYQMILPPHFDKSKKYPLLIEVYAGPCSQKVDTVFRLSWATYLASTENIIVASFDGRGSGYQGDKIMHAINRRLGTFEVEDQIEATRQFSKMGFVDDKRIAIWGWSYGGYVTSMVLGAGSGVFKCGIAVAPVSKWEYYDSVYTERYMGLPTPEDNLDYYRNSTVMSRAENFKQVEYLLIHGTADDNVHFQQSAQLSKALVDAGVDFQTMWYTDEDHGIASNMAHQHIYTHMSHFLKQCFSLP

Sequence of Dipeptidyl peptidase 4 (Sus scrofa, UniProt P22411) (P22411 whole entry): as the sequence (P22411 whole entry, looked up) above
Sequence of Dipeptidyl peptidase 4 (Homo sapiens, UniProt P27487) (P27487 whole entry): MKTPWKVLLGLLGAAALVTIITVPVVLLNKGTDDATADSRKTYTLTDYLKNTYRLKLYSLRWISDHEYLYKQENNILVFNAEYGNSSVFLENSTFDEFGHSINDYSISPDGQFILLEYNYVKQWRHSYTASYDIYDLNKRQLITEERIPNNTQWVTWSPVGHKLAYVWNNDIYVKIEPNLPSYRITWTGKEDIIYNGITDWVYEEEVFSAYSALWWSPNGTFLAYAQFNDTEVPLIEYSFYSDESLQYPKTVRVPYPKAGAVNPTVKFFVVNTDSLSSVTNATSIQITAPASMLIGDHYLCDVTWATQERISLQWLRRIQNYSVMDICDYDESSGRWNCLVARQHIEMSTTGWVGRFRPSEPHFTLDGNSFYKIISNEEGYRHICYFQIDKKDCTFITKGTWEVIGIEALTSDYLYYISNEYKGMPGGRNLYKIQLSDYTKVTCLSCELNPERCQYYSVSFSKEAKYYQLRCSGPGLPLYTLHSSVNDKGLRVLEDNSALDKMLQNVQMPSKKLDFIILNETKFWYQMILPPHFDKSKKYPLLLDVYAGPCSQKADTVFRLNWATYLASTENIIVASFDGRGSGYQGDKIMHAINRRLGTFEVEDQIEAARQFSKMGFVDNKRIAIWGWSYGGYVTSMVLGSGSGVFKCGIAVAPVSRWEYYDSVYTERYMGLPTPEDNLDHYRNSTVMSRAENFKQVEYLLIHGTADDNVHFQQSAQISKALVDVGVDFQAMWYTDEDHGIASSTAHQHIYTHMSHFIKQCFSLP

As to `N[C@@H](CC(=O)N1CCC[C@H]1CNC(=O)c1ccccc1)Cc1ccccc1F`, on Dipeptidyl peptidase 4 [1], inhibition was half-maximal at 0.41 µM (IC50).
`NCC(c1ccccc1Cl)N1CCOCC1` (stereo not given): the IC50 against Dipeptidyl peptidase 4 [1] is 46 µM.
Still for that read-out and setting: the value for `NCC1(c2ccccc2)CCCC1` was 30 µM.
As for `NC(=O)[C@@H]1Cc2ccccc2CN1C(=O)C[C@H](N)Cc1ccccc1F`, the IC50 on Dipeptidyl peptidase 4 [2] was found to be 0.023 µM. For the same compound, the inhibition in assay [3] stood at 60%.

One may read the IC50 as the midpoint of a concentration-inhibition curve. Higher therefore signals weaker potency. As usually defined, the inhibition is the share of the control response that was lost under treatment. Lower therefore signals little suppression.
